US20250034135A1, “ANTI-APOPTOTIC PROTEIN BCL-2 INHIBITOR, PHARMACEUTICAL COMPOSITION AND USES THEREOF” (HANGZHOU HEALZEN THERAPEUTICS CO., LTD., priority 2021, published 2025)
Read-outs that look alike come from different tables or passages of the source.

What was measured:
BCL2 = BCL2 (Homo sapiens (Human), UniProt P10415); assay: Molecular level activity test of anti-apoptotic protein BCL2 (HTRF, binding to Bim peptide); conditions: HTRF, binding of BCL2 to Bim peptide; read-out: BCL2 nM (inhibitory activity, IC50)
Method in brief: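 Competition binding format: recombinant His-BCL2 and a biotin-Bim peptide are incubated with compound for 1 h, followed by 4 h at room temperature with HTRF detection antibodies.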

BCL2 (G101V) = BCL2 (G101V) (Homo sapiens (Human), UniProt P10415, G101V); assay: Molecular level activity test of anti-apoptotic protein BCL2 (G101V) (HTRF, binding to Bim peptide); conditions: inhibition of BCL2 (G101V) binding to Bim peptide, read-out: BCL-2 (G101V)
Description: (§1) The detection of the binding ability between anti-apoptotic protein BCL2 (G101V) and pro-apoptotic protein Bim was performed using Homogeneous Time-Resolved Fluorescence technology. The reaction of this method occurred in a white shallow 384-well plate, with a total reaction volume of 10 μL. Specifically, it included 2 μL of the compound to be tested (2% DMSO), 4 μL His-tagged recombinant protein, and 4 μL Biotin-tagged BIM protein peptide. After 1 hour of reaction, 5 L of each Anti-His and streptavidin-tagged XL665 antibody diluents diluted with a detection buffer were added. After incubating at room temperature for 4 hours, the values were read using the Envision multifunctional microplate reader to detect the effect of the compound to be tested on the binding ability of BCL2 (G101V) to BIM protein peptides.

BCL2 (D103Y) = BCL2 (D103Y) (Homo sapiens (Human), UniProt P10415, D103Y); assay: Molecular level activity test of BCL2 (D103Y) (HTRF, binding to Bim peptide); conditions: read-out: BCL-2 (D103Y) (nM) (inhibitory activity, IC50)
Description: as §1, with “BCL2 (D103Y)” for “BCL2 (G101V)”, “5 μL” for “5 L”

RS4; 11 cells = assay: Tumor proliferation inhibitory activity test (MTS) on RS4; 11; assay type: cell-based; conditions: Homo sapiens, RS4-11, 72 h, 3 days incubation
Description: The cell proliferation inhibitory ability of the compounds on RS4; 11 was tested using the MTS method. MTS is a tetrazolium blue salt compound that can be reduced by various dehydrogenases in live cell mitochondria to their respective colored methylzan products. Its color depth is highly correlated with the number of live cells in certain sensitive cell lines within a certain range. RS4; 11, RS4; 11 (BCL-2-G101V) and MOLT-4 tumor cells were cultivated separately and collected, 180 μL of cell suspension was added to each well in a 96-well cell plate, 20 μL of DMSO with a final concentration of 0.2% was added to the control cell wells, 20 μL of gradient diluted compounds were added to cell wells, and the treated cells were incubated in a 5% CO2 incubator at 37° C. for 3 days. After the incubation was completed, the reaction solution was prepared according to the MTS reagent kit, 20 μL was added per well and incubated in a 5% CO2 incubator at 37° C. for 3-4 hours. The absorbance value at 490 nm was read using an enzyme-linked immunosorbent assay (ELISA) plate, and the absorbance value at 690 nm was used as the background value, with OD490 nm-OD690 nm as the final raw data. The formula for calculating the inhibition ratio of compounds was as follows: inhibition ratio=(ODDMSO−ODCompound)/(ODDMSO−ODblank)×100%.

BCL-XL = BCL-XL (Homo sapiens (Human), UniProt Q07817); assay: BCL-XL enzyme molecular level activity test (HTRF, binding to BIM peptide); conditions: binding of BCL-XL to BIM peptide, read-out: BCL-XL inhibitory activity (IC50)
Method in brief: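 HTRF binding assay: His-tagged recombinant BCL-XL with biotin-BIM peptide and compound (2% DMSO), 1 h. Anti-His and streptavidin-XL665 detection reagents added, 4 h at room temperature. Excitation 320 nm; 665/615 nm ratio reflects binding, with no-protein background and no-compound full-binding controls.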

BCL-XL, sequence (Q07817 whole entry): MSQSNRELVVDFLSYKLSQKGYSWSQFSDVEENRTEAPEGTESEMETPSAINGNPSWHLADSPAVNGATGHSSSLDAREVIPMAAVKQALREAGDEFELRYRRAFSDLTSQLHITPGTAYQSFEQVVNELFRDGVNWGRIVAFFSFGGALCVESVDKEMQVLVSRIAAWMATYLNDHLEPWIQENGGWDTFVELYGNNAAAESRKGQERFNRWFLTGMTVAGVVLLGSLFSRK

Row | Structure (SMILES) | IC50 (BCL2) | IC50 (BCL2 (G101V)) | IC50 (BCL2 (D103Y)) | IC50 (RS4; 11 cells) | IC50 (BCL-XL; values in nM) | IC50 (BCL-XL; values given in μM)
1 | CC(C)c1ccccc1[C@@H]1CN(Cc2cnn(C)c2)CCN1C1CC2(CCN(c3cc(Oc4cnc5[nH]cc(F)c5c4)c(C(=O)NS(=O)(=O)c4ccc(NCC5(F)CCOCC5)c([N+](=O)[O-])c4)cc3F)CC2)C1 [compound 255, (R)-5-fluoro-2-((3-fluoro-1H-pyrrolo[2,3-b]pyrid-5-yl)oxy)-N-((4-(((4-fluorotetrahydro-2H-pyran-4-yl)methyl)amino)-3-nitrophenyl)sulfonyl)-4-(2-(2-(2-isopropylphenyl)-4-((1-methyl-1H-pyrazol-4-yl)methyl)piperazin-1-yl)-7-azaspiro[3.5]non-7-yl)benzamide] | < 10 nM | < 10 nM | < 10 nM | 0.5 to 1 nM | > 500 nM | –
2 | COc1ccc(CN2CCN(C3CC4(CCN(c5cc(Oc6cnc7[nH]ccc7c6)c(C(=O)NS(=O)(=O)c6cc([N+](=O)[O-])c(NCC7CCOCC7)c7c6OCCO7)cc5F)CC4)C3)[C@H](c3ccccc3C(C)C)C2)cc1 [compound 265, (R)-2-((1H-pyrrolo[2,3-b]pyrid-5-yl)oxy)-5-fluoro-4-(2-(2-(2-isopropylphenyl)-4-(4-methoxybenzyl)piperazin-1-yl)-7-azaspiro[3.5]non-7-yl)-N-((7-nitro-8-(((tetrahydro-2H-pyran-4-yl)methyl)amino)-2,3-dihydrobenzo[b][1,4]dioxin-5-yl)sulfonyl)benzamide] | < 10 nM | < 10 nM | < 10 nM | 0.5 to 1 nM | – | > 20000 nM
3 | CNCc1ccc(CN2CCN(C3CC4(CCN(c5cc(Oc6cnc7[nH]ccc7c6)c(C(=O)NS(=O)(=O)c6ccc(NCC7(F)CCOCC7)c([N+](=O)[O-])c6)cc5F)CC4)C3)[C@H](c3ccccc3C(C)C)C2)cc1OC [compound 246, (R)-2-((1H-pyrrolo[2,3-b]pyrid-5-yl)oxy)-5-fluoro-N-((4-(((4-fluorotetrahydro-2H-pyran-4-yl)methyl)amino)-3-nitrophenyl)sulfonyl)-4-(2-(2-(2-isopropylphenyl)-4-(3-methoxy-4-((methylamino)methyl)benzyl)piperazin-1-yl)-7-azaspiro[3.5]non-7-yl)benzamide] | < 10 nM | < 10 nM | < 10 nM | 0.5 to 1 nM | > 500 nM | –
4 | COc1ccc(CN2CCN(C3CC4(CCN(c5cc(Oc6cnc7[nH]ccc7c6)c(C(=O)NS(=O)(=O)c6cc([N+](=O)[O-])c(NCC7CCOCC7)c7c6OCO7)cc5F)CC4)C3)[C@H](c3ccccc3C(C)C)C2)cc1 [compound 120, (R)-2-((1H-pyrrolo[2,3-b]pyrid-5-yl)oxy)-5-fluoro-4-(2-(2-(2-isopropylphenyl)-4-(4-methoxybenzyl)piperazin-1-yl)-7-azaspiro[3.5]non-7-yl)-N-((6-nitro-7-(((tetrahydro-2H-pyran-4-yl)methyl)amino)benzo[d][1,3]dioxocyclopent-4-yl)sulfonyl)benzamide] | < 10 nM | < 10 nM | < 10 nM | 0.5 to 1 nM | – | 1600 nM
5 | COc1ccc(CN2CCN(C3CC4(CCN(c5cc(Oc6cnc7[nH]ccc7c6)c(C(=O)NS(=O)(=O)c6cc([N+](=O)[O-])c(NCC7CCOCC7)c7[nH]cnc67)cn5)CC4)C3)[C@H](c3ccccc3C(C)C)C2)cc1 [compound 267, (R)-4-((1H-pyrrolo[2,3-b]pyrid-5-yl)oxy)-6-(2-(2-(2-isopropylphenyl)-4-(4-methoxybenzyl)piperazin-1-yl)-7-azaspiro[3.5]non-7-yl)-N-((6-nitro-7-(((tetrahydro-2H-pyran-4-yl)methyl)amino)-1H benzo[d]imidazol-4-yl)sulfonyl) nicotinamide] | < 10 nM | < 10 nM | < 10 nM | 0.5 to 1 nM | > 500 nM | –
6 | CNCc1ccc(CN2CCN(C3CC4(CCN(c5cc(Oc6cnc7[nH]ccc7c6)c(C(=O)NS(=O)(=O)c6ccc(NCC7(F)CCOCC7)c([N+](=O)[O-])c6)cc5F)CC4)C3)[C@H](c3ccccc3C(C)C)C2)cc1 [compound 243, (R)-2-((1H-pyrrolo[2,3-b]pyrid-5-yl)oxy)-5-fluoro-N-((4-(((4-fluorotetrahydro-2H-pyran-4-yl)methyl)amino)-3-nitrophenyl)sulfonyl)-4-(2-(2-(2-isopropylphenyl)-4-(4-((methylamino)methyl)benzyl)piperazin-1-yl)-7-azaspiro[3.5]non-7-yl)benzamide] | < 10 nM | < 10 nM | < 10 nM | 0.5 to 1 nM | > 500 nM | –
7 | COc1ccc(CN2CCN(C3CC4(CCN(c5cc(Oc6cnc7[nH]ccc7c6)c(C(=O)NS(=O)(=O)c6ccc(NC[C@H]7CC[C@](C)(O)CC7)c([N+](=O)[O-])c6)cc5F)CC4)C3)[C@H](c3ccccc3C(C)C)C2)cn1 [compound 236, 2-((1H-pyrrolo[2,3-b]pyrid-5-yl)oxy)-5-fluoro-N-((4-((((1r, 4r)-4-hydroxy-4-methylcyclohexyl)methyl)amino)-3-nitrophenyl)sulfonyl)-4-(2-((R)-2-(2-isopropylphenyl)-4-((6-methoxypyrid-3-yl)methyl)piperazin-1-yl)-7-azaspiro[3.5]non-7-yl)benzamide] | < 10 nM | < 10 nM | < 10 nM | 0.5 to 1 nM | > 500 nM | –
8 | COc1ccc(CN2CCN(C3CC4(CCN(c5cc(Oc6cnc7[nH]ccc7c6)c(C(=O)NS(=O)(=O)c6ccc(NCC7(F)CCOCC7)c([N+](=O)[O-])c6)cc5F)CC4)C3)[C@H](c3ccccc3C(C)C)C2)cc1CN1CCCC1 [compound 251, (R)-2-((1H-pyrrolo[2,3-b]pyrid-5-yl)oxy)-5-fluoro-N-((4-(((4-fluorotetrahydro-2H-pyran-4-yl)methyl)amino)-3-nitrophenyl)sulfonyl)-4-(2-(2-(2-isopropylphenyl)-4-(4-methoxy-3-(pyrrolidin-1-ylmethyl)benzyl)piperazin-1-yl)-7-azaspiro[3.5]non-7-yl)benzamide] | < 10 nM | < 10 nM | < 10 nM | 0.5 to 1 nM | > 500 nM | –
9 | CC(C)c1ccccc1[C@@H]1CN(Cc2ccc(CN3CCCC3)cc2)CCN1C1CC2(CCN(c3cc(Oc4cnc5[nH]ccc5c4)c(C(=O)NS(=O)(=O)c4ccc(NCC5(F)CCOCC5)c([N+](=O)[O-])c4)cc3F)CC2)C1 [compound 245, (R)-2-((1H-pyrrolo[2,3-b]pyrid-5-yl)oxy)-5-fluoro-N-((4-(((4-fluorotetrahydro-2H-pyran-4-yl)methyl)amino)-3-nitrophenyl)sulfonyl)-4-(2-(2-(2-isopropylphenyl)-4-(4-(pyrrolidin-1-ylmethyl)benzyl)piperazin-1-yl)-7-azaspiro[3.5]non-7-yl)benzamide] | < 10 nM | < 10 nM | < 10 nM | 0.5 to 1 nM | > 500 nM | –
10 | COc1ccc(CN2CCN(C3CC4(CCN(c5ccc(C(=O)NS(=O)(=O)c6cc([N+](=O)[O-])c(NCC7CCOCC7)c7[nH]cnc67)c(Oc6cnc7[nH]ccc7c6)c5)CC4)C3)[C@H](c3ccccc3C(C)C)C2)cc1 [compound 260] | < 10 nM | < 10 nM | < 10 nM | < 0.5 nM | > 500 nM | –
